Patent US10378021B2, “Plant CO2 sensors, nucleic acids encoding them, and methods for making and using them” (The Regents of the University of California, priority 2007, dated 2019)

How the values were obtained:
[1] = system: wild-type Arabidopsis thaliana plants; experiment: Norflurazon bleaching of leaves and CO2-induced stomatal movements in albino leaves; type: in vivo
Description: To further analyze whether intact photosynthesis is required for CO2 regulation of stomatal movements, another approach was carried out.
FIG. 13A illustrates an image of chlorophyll-deficient albino wild-type leaves devoid of functional chloroplasts were generated by application of the carotenoid biosynthesis inhibitor norflurazon. The absence of chlorophyll in albino guard cells compared to wild-type was visualized by confocal microscopy (FIG. 13B graphically illustrates data) and quantified by image analysis of the chlorophyll fluorescence intensity (FIG. 13C graphically illustrates data) (n=3, 12 stomata/sample.). FIG. 13D graphically illustrates data showing CO2-induced stomatal movements in albino versus control plant leaves (n=7, 50 stomata/sample). Error bars depict means±s.e.m.

[2] = system: wild-type leaf epidermis stomata; experiment: CO2-induced stomatal movements in leaf epidermis treated with carbonic anhydrase inhibitor; type: cell-based, Arabidopsis thaliana; settings: wild-type leaf epidermis treated for 30 min
[3] = system: ca1ca4 leaf epidermis stomata; experiment: abscisic acid-induced stomatal closing in leaf epidermis; type: cell-based, Arabidopsis thaliana
Description: FIG. 10A illustrates stomata in ca1ca4 double mutant leaves close in response to abscisic acid; n=3 experiments, 30 stomata/experiment and condition. Error bars depict means±s.e.m. FIG. 10B illustrates CO2-induced stomatal movements are impaired in ca1ca4 double mutant leaves and in wild-type leaf epidermis treated with the carbonic anhydrase inhibitor 6-ethoxy-2-benzothiazolesulphonamide (EZA) (n=6, 30 stomata/sample); see e.g., Becker et al., 2007.
To determine whether the impaired CO2 responses in intact leaves (see FIG. 9C, FIG. 9D, FIG. 9E) are linked to stomatal movements, CO2 responses were analyzed in leaf epidermis. CO2-induced stomatal movements were impaired in ca1ca4 as compared to wild-type, as illustrated in FIG. 10B. Furthermore, when wild-type leaf epidermis were treated for 30 min with the membrane-permeable CA inhibitor EZA (see, e.g., Becker et al., 2007), CO2-induced stomatal opening and closing were inhibited, which correlates with a role for carbonic anhydrases in CO2 sensing, rather than a long-term developmental effect of CA gene disruption on the rapid CO2 response, as illustrated in FIG. 10B.

Arabidopsis guard cells = settings: loaded into Arabidopsis guard cells; cited from earlier work

In the case of `CNc1cnn(-c2cccc(C(F)(F)F)c2)c(=O)c1Cl` [Norflurazon], the “stomatal CO2 response to both high and low [CO2] in intact leaves” value ([1]; albino leaves without functional chloroplasts) is reported as “not affected” and the “leaf phenotype of newly emerging leaves” value ([1]; watering 3 to 4 week-old wild-type plants) is reported as “albino chlorophyll-deficient wild-type leaves devoid of functional chloroplasts”.
With `CCOc1ccc2nc(S(N)(=O)=O)sc2c1` [EZA, 6-ethoxy-2-benzothiazolesulphonamide] the “CO2-induced stomatal opening and closing” value [2] was “inhibited”.
With `CC1=CC(=O)CC(C)(C)[C@@]1(O)/C=C/C(C)=C\C(=O)O` [abscisic acid] the ABA-induced stomatal closing [3] was “completely functional”.
For `O=C(O)CN(CC(=O)O)c1ccccc1OCCOc1ccccc1N(CC(=O)O)CC(=O)O` [BAPTA], the “spontaneous calcium transients in guard cells” value (Arabidopsis guard cells) is given as “effectively inhibits”.
